Test results taken from PubChem BioAssay (NCI).
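These data come from cells grown in 96-well plates and exposed to compound for 48 hours at five concentrations. GI50 marks 50% less growth. TGI: total growth inhibition.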

Assays:
Experiment in all cases: inhibition of tumour cell growth, NCI panel, 48 h
U251 CNS = test system: U251 CNS
SN12C renal = test system: SN12C renal
HOP-92 NSCLC = test system: HOP-92 NSCLC
SF-268 CNS = test system: SF-268 CNS
SW-620 colon = test system: SW-620 colon
CCRF-CEM leukemia = test system: CCRF-CEM leukemia
A549 NSCLC = test system: A549 NSCLC
SNB-19 CNS = test system: SNB-19 CNS
ACHN renal = test system: ACHN renal
786-0 renal = test system: 786-0 renal
HCT-15 colon = test system: HCT-15 colon
DU-145 prostate = test system: DU-145 prostate
RPMI-8226 leukemia = test system: RPMI-8226 leukemia
K-562 leukemia = test system: K-562 leukemia
M14 melanoma = test system: M14 melanoma
SK-MEL-28 melanoma = test system: SK-MEL-28 melanoma
SNB-75 CNS = test system: SNB-75 CNS
MALME-3M melanoma = test system: MALME-3M melanoma
A498 renal = test system: A498 renal
OVCAR-3 ovarian = test system: OVCAR-3 ovarian
UACC-62 melanoma = test system: UACC-62 melanoma
SK-MEL-5 melanoma = test system: SK-MEL-5 melanoma
T-47D breast = test system: T-47D breast
HCC-2998 colon = test system: HCC-2998 colon
MCF7 breast = test system: MCF7 breast
BT-549 breast = test system: BT-549 breast
TK-10 renal = test system: TK-10 renal
UACC-257 melanoma = test system: UACC-257 melanoma
HS 578T breast = test system: HS 578T breast
SK-OV-3 ovarian = test system: SK-OV-3 ovarian
SR leukemia = test system: SR leukemia
SF-295 CNS = test system: SF-295 CNS
PC-3 prostate = test system: PC-3 prostate
NCI/ADR-RES ovarian = test system: NCI/ADR-RES ovarian
SK-MEL-2 melanoma = test system: SK-MEL-2 melanoma
KM12 colon = test system: KM12 colon
LOX IMVI melanoma = test system: LOX IMVI melanoma
OVCAR-8 ovarian = test system: OVCAR-8 ovarian
SF-539 CNS = test system: SF-539 CNS
OVCAR-4 ovarian = test system: OVCAR-4 ovarian
MDA-MB-435 = test system: MDA-MB-435
HCT-116 colon = test system: HCT-116 colon
NCI-H23 lung = test system: NCI-H23 lung
COLO 205 colon = test system: COLO 205 colon
NCI-H460 lung = test system: NCI-H460 lung
OVCAR-5 ovarian = test system: OVCAR-5 ovarian
NCI-H226 lung = test system: NCI-H226 lung
HOP-62 NSCLC = test system: HOP-62 NSCLC
CAKI-1 renal = test system: CAKI-1 renal
NCI-H522 lung = test system: NCI-H522 lung
UO-31 renal = test system: UO-31 renal
HL-60(TB) leukemia = test system: HL-60(TB) leukemia
IGROV1 ovarian = test system: IGROV1 ovarian
RXF 393 renal = test system: RXF 393 renal
HT29 colon = test system: HT29 colon
MOLT-4 leukemia = test system: MOLT-4 leukemia
MDA-MB-231 breast = test system: MDA-MB-231 breast
EKVX NSCLC = test system: EKVX NSCLC

## N#Cc1cccc(Nc2nccc(-c3cnn4ncccc34)n2)c1
U251 CNS
  GI50: 5.52 nM
  TGI: > 25000 nM
SN12C renal
  GI50: 6.74 nM
  TGI: > 25000 nM
HOP-92 NSCLC
  GI50: 5.89 nM
  TGI: 16.6 nM
SF-268 CNS
  GI50: 4.98 nM
  TGI: 300 nM
SW-620 colon
  GI50: 6.02 nM
  TGI: > 25000 nM
CCRF-CEM leukemia
  GI50: 6 nM
  TGI: > 25000 nM
A549 NSCLC
  GI50: 7.29 nM
  TGI: > 25000 nM
SNB-19 CNS
  GI50: 7.02 nM
  TGI: > 25000 nM
ACHN renal
  GI50: 4.87 nM
  TGI: > 25000 nM
786-0 renal
  GI50: 6.08 nM
  TGI: > 25000 nM
HCT-15 colon
  GI50: 7.1 nM
  TGI: > 25000 nM
DU-145 prostate
  GI50: 6.61 nM
  TGI: 3460 nM
RPMI-8226 leukemia
  GI50: 7.63 nM
  TGI: 21.2 nM
K-562 leukemia
  GI50: 7.82 nM
  TGI: > 25000 nM
M14 melanoma
  GI50: 5.25 nM
  TGI: 12.5 nM
SK-MEL-28 melanoma
  GI50: 4.08 nM
  TGI: 12.5 nM
SNB-75 CNS
  GI50: 4.94 nM
  TGI: 12 nM
MALME-3M melanoma
  GI50: 7.6 nM
  TGI: 20.9 nM
A498 renal
  GI50: 3.71 nM
  TGI: 9.1 nM
OVCAR-3 ovarian
  GI50: 5.41 nM
  TGI: 15 nM
UACC-62 melanoma
  GI50: 3.96 nM
  TGI: 11.6 nM
SK-MEL-5 melanoma
  GI50: 6.18 nM
  TGI: 18 nM
T-47D breast
  GI50: 18.2 nM
  TGI: 219 nM
HCC-2998 colon
  GI50: 6.95 nM
  TGI: 24.1 nM
MCF7 breast
  GI50: 8.56 nM
  TGI: > 25000 nM
BT-549 breast
  GI50: 5.59 nM
  TGI: 17 nM
TK-10 renal
  GI50: 6.03 nM
  TGI: 17.2 nM
UACC-257 melanoma
  GI50: 5.94 nM
  TGI: 15.4 nM
HS 578T breast
  GI50: 4.82 nM
  TGI: 21 nM
SK-OV-3 ovarian
  GI50: 14 nM
  TGI: > 25000 nM
SR leukemia
  GI50: 2.5 nM
SF-295 CNS
  GI50: 4.87 nM
  TGI: 22.3 nM
PC-3 prostate
  GI50: 7.45 nM
  TGI: > 25000 nM
NCI/ADR-RES ovarian
  GI50: 6.97 nM
SK-MEL-2 melanoma
  GI50: 4.58 nM
  TGI: 10.5 nM
KM12 colon
  GI50: 6.32 nM
  TGI: 26.3 nM
LOX IMVI melanoma
  GI50: 2.79 nM
  TGI: > 8750 nM
OVCAR-8 ovarian
  GI50: 6.5 nM
  TGI: > 25000 nM
SF-539 CNS
  GI50: 3.81 nM
  TGI: 15.4 nM
OVCAR-4 ovarian
  GI50: 32.2 nM
MDA-MB-435
  GI50: 6.28 nM
  TGI: 23.9 nM
HCT-116 colon
  GI50: 4.43 nM
  TGI: 1340 nM
NCI-H23 lung
  GI50: 6.86 nM
  TGI: 23.9 nM
COLO 205 colon
  GI50: 2.95 nM
  TGI: 6.63 nM
NCI-H460 lung
  GI50: 8.37 nM
  TGI: > 25000 nM
OVCAR-5 ovarian
  GI50: 8.23 nM
  TGI: > 25000 nM
NCI-H226 lung
  GI50: 5.13 nM
  TGI: 15.2 nM
HOP-62 NSCLC
  GI50: 7.49 nM
CAKI-1 renal
  GI50: 7.29 nM
  TGI: 1170 nM
NCI-H522 lung
  GI50: 7.52 nM
  TGI: 39.4 nM
UO-31 renal
  GI50: 7.19 nM
  TGI: > 25000 nM
HL-60(TB) leukemia
  GI50: 3.63 nM
  TGI: < 12.9 nM
IGROV1 ovarian
  GI50: 9.37 nM
  TGI: > 11600 nM
RXF 393 renal
  GI50: 2.69 nM
  TGI: 7.91 nM
HT29 colon
  GI50: 5.72 nM
  TGI: 34 nM

## CSC(=S)NN=C1CCCCC1
U251 CNS
  TGI: > 100000 nM
SN12C renal
  TGI: 84900 nM
HOP-92 NSCLC
  TGI: > 100000 nM
SF-268 CNS
  TGI: > 100000 nM
SW-620 colon
  TGI: > 100000 nM
CCRF-CEM leukemia
  TGI: 87800 nM
A549 NSCLC
  TGI: > 100000 nM
SNB-19 CNS
  TGI: > 100000 nM
ACHN renal
  TGI: 56000 nM
786-0 renal
  TGI: > 100000 nM
HCT-15 colon
  TGI: > 100000 nM
DU-145 prostate
  TGI: > 100000 nM
RPMI-8226 leukemia
  TGI: 647 nM
K-562 leukemia
  TGI: 83200 nM
M14 melanoma
  TGI: 38700 nM
MOLT-4 leukemia
  TGI: 40800 nM
SK-MEL-28 melanoma
  TGI: > 100000 nM
MDA-MB-231 breast
  TGI: > 100000 nM
SNB-75 CNS
  TGI: > 100000 nM
MALME-3M melanoma
  TGI: 44800 nM
A498 renal
  TGI: > 100000 nM
OVCAR-3 ovarian
  TGI: > 100000 nM
UACC-62 melanoma
  TGI: 38000 nM
SK-MEL-5 melanoma
  TGI: 37700 nM
T-47D breast
  TGI: > 100000 nM
MCF7 breast
  TGI: > 100000 nM
BT-549 breast
  TGI: > 100000 nM
TK-10 renal
  TGI: 89700 nM
UACC-257 melanoma
  TGI: > 100000 nM
HS 578T breast
  TGI: > 100000 nM
SK-OV-3 ovarian
  TGI: > 100000 nM
SF-295 CNS
  TGI: > 100000 nM
PC-3 prostate
  TGI: > 100000 nM
NCI/ADR-RES ovarian
  TGI: 60600 nM
SK-MEL-2 melanoma
  TGI: > 100000 nM
KM12 colon
  TGI: > 100000 nM
LOX IMVI melanoma
  TGI: 53100 nM
OVCAR-8 ovarian
  TGI: > 100000 nM
SF-539 CNS
  TGI: 67700 nM
OVCAR-4 ovarian
  TGI: > 100000 nM
MDA-MB-435
  TGI: > 100000 nM
EKVX NSCLC
  TGI: > 100000 nM
HCT-116 colon
  TGI: > 100000 nM
NCI-H23 lung
  TGI: > 100000 nM
COLO 205 colon
  TGI: > 100000 nM
NCI-H460 lung
  TGI: > 100000 nM
NCI-H226 lung
  TGI: 42400 nM
HOP-62 NSCLC
  TGI: > 100000 nM
CAKI-1 renal
  TGI: 65200 nM
NCI-H522 lung
  TGI: 88700 nM
UO-31 renal
  TGI: > 100000 nM
IGROV1 ovarian
  TGI: 43300 nM
RXF 393 renal
  TGI: > 100000 nM
HT29 colon
  TGI: > 100000 nM
